biological target: human DHODH (Homo sapiens (Human), UniProt Q02127); assay: Inhibition of human DHODH activity assay (DCIP chromogen reduction); settings: read-out: hDHODH IC50; human enzyme extract, 200 μM CoQD, 100 μM L-DHO, 120 μM DCIP, 10 min room temperature, absorbance 600 nm
Sequence (Q02127 whole entry): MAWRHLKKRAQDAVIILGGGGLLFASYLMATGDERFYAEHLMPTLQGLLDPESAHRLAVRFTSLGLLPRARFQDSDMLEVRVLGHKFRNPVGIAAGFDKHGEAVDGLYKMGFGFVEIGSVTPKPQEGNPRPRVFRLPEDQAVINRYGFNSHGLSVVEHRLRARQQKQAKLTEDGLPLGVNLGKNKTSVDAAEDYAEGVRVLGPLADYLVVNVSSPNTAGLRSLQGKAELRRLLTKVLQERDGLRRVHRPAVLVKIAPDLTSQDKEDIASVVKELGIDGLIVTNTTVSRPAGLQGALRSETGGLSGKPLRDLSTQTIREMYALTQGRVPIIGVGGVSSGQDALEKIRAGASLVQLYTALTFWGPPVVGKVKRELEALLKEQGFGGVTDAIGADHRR
Experimental: DHODH activity and its inhibition were studied using a chromogen reduction assay with DCIP (2,6-dichlorophenol-indophenol).
Enzyme extracts (8 μl, ˜1.5 μg of human protein) were incubated in 96-well plates. The assay mixture (200 μl) contained 200 μM CoQD, 100 μM L-DHO, 120 μM DCIP in the assay buffer (100 mM HEPES pH 8.0, 150 mM NaCl, 10% Glicerol, 0.05% Triton X-100) and 2 μl of test compound. The compounds were dissolved in DMSO at a stock concentration of 1 mM, and tested at different concentrations varying from 10 μM to 1 μM to calculate an IC50 (concentration of inhibitor required for 50% of inhibition).
The reaction was initiated by adding the enzyme and then incubated for 10 min at room temperature before measuring DCIP reduction by counting a decrease in absorbance at 600 nm using standard instrumentation (Spectramax).
All reactions were carried out in duplicate and graphs, determining IC50 values for each compound, were plotted using the ABase software.

IC50 [nM]	SMILES
19	CCOc1cccc(-c2cc(F)c(Nc3ncccc3C(=O)O)c(F)c2)c1 [Example 19, 2-(3′-Ethoxy-3,5-difluorobiphenyl-4-ylamino)nicotinic acid]
53	COc1cccc(-c2cc(F)c(Nc3ncccc3C(=O)O)c(F)c2)c1F [Example 45, 2-(2′,3,5-trifluoro-3′-methoxybiphenyl-4-ylamino)nicotinic acid]
150	COc1cccc(-c2ccc(Nc3ncccc3C(=O)O)c(Cl)c2)c1 [Example 13, 2-(3-Chloro-3′-methoxybiphenyl-4-ylamino)nicotinic acid]
110	Cc1cnc(Nc2ccc(-c3cccc(OC(F)(F)F)c3)cc2F)c(C(=O)O)c1 [Example 33, 2-(3-Fluoro-3′-(trifluoromethoxy)biphenyl-4-ylamino)-5-methylnicotinic acid]
88	COc1cccc(-c2cc(F)c(Nc3ncccc3C(=O)O)cc2F)c1 [Example 6, 2-(2,5-Difluoro-3′-methoxybiphenyl-4-ylamino)nicotinic acid]
6	O=C(O)c1cc(C2CC2)cnc1Nc1c(F)cc(-c2cccc(OC3CC3)c2)cc1F [Example 50, 2-(3′-cyclopropoxy-3,5-difluorobiphenyl-4-ylamino)-5-cyclopropylnicotinic acid]
4	O=C(O)c1cc(C2CC2)cnc1Nc1c(F)cc(-c2cccc(OC(F)(F)F)c2)cc1F [Example 52, 5-cyclopropyl-2-(3,5-difluoro-3′-(trifluoromethoxy)biphenyl-4-ylamino)nicotinic acid]
23	CCOc1cccc(-c2cc(F)c(Nc3ncc(C4CC4)cc3C(=O)O)cc2F)c1 [Example 42, 5-cyclopropyl-2-(3′-ethoxy-2,5-difluorobiphenyl-4-ylamino)nicotinic acid]
200	CCOc1cccc(-c2ccc(Nc3ncccc3C(=O)O)c(F)c2)c1 [Example 2, 2-(3′-Ethoxy-3-fluorobiphenyl-4-ylamino)nicotinic acid]
3	COc1cccc(-c2c(F)c(F)c(Nc3ncccc3C(=O)O)c(F)c2F)c1 [Example 60, 2-(2,3,5,6-tetrafluoro-3′-methoxybiphenyl-4-ylamino)nicotinic acid]
6	Cc1c(-c2cccc(OC(F)(F)F)c2)cc(F)c(Nc2ncccc2C(=O)O)c1F [Example 56, 2-(3,5-difluoro-2-methyl-3′-(trifluoromethoxy)biphenyl-4-ylamino)nicotinic acid]
33	COc1cccc(-c2ccc(Nc3ncc(C4CC4)cc3C(=O)O)c(F)c2)c1 [Example 34, 5-Cyclopropyl-2-(3-fluoro-3′-methoxybiphenyl-4-ylamino)nicotinic acid]
5	Cc1c(-c2ccccc2)cc(F)c(Nc2ncccc2C(=O)O)c1F [Example 48, 2-(3,5-difluoro-2-methylbiphenyl-4-ylamino)nicotinic acid]
11	Cc1ccccc1-c1cc(F)c(Nc2ncccc2C(=O)O)c(F)c1 [Example 61, 2-(3,5-difluoro-2′-methylbiphenyl-4-ylamino)nicotinic acid]
8	O=C(O)c1cc(Cl)cnc1Nc1c(F)cc(-c2ccccc2)cc1F [Example 58, 5-chloro-2-(3,5-difluorobiphenyl-4-ylamino)nicotinic acid]
99	COc1cccc(-c2cc(F)c(Nc3ncccc3C(=O)O)cc2C)c1 [Example 37, 2-(5-Fluoro-3′-methoxy-2-methylbiphenyl-4-ylamino)nicotinic acid]
17	O=C(O)c1cccnc1Nc1c(F)cc(-c2cccc(OC3CC3)c2)cc1F [Example 47, 2-(3′-cyclopropoxy-3,5-difluorobiphenyl-4-ylamino)nicotinic acid]
5	O=C(O)c1cc(C2CC2)cnc1Nc1c(F)cc(-c2ccccc2Cl)cc1F [Example 54, 2-(2′-chloro-3,5-difluorobiphenyl-4-ylamino)-5-cyclopropylnicotinic acid]
4	Cc1c(-c2ccccc2Cl)cc(F)c(Nc2ncccc2C(=O)O)c1F [Example 57, 2-(2′-chloro-3,5-difluoro-2-methylbiphenyl-4-ylamino)nicotinic acid]
12	CCc1cnc(Nc2c(F)cc(-c3cccc(OC)c3)cc2F)c(C(=O)O)c1 [Example 40, 2-(3,5-difluoro-3′-methoxybiphenyl-4-ylamino)-5-ethylnicotinic acid]

SMILES	IC50 [nM]
O=C(O)c1ccncc1Nc1ccc(-c2cccc(OC(F)(F)F)c2)cc1F [Example 24, Lithium 3-(3-fluoro-3′-(trifluoromethoxy)biphenyl-4-ylamino)isonicotinate]	200
COc1cccc(-c2ccc(Nc3cnccc3C(=O)O)c(OC(F)(F)F)c2)c1 [Example 23, Lithium 3-(3′-methoxy-3-(trifluoromethoxy)biphenyl-4-ylamino)isonicotinate]	14
O=C(O)c1cccnc1Nc1c(F)cc(-c2cccc(OC3CCC3)c2)cc1F [Example 17, 2-(3′-Cyclobutoxy-3,5-difluorobiphenyl-4-ylamino)nicotinic acid]	90
CCOc1cccc(-c2ccc(Nc3cnccc3C(=O)O)c(F)c2)c1 [Example 21, Lithium 3-(3′-ethoxy-3-fluorobiphenyl-4-ylamino)isonicotinate]	19

test system: HIV replication; assay: not given; settings: at concentration that can be obtained with conventional dosing; cited from earlier work

SMILES	reduces HIV replication
Cc1oncc1C(=O)Nc1ccc(C(F)(F)F)cc1 [Leflunomide]	about 75%

— patent US8691852B2, “Amino nicotinic and isonicotinic acid derivatives as DHODH inhibitors” (Amirall, S.A., priority 2006, dated 2014)
